Measured values from the supplement of paper PMC10599287.

Tests used:
[1] = compound: CCNC(=O)C#Cc1ccc2c(C(=Nc3ccc(CN(C)C)cc3)c3ccccc3)c(O)[nH]c2c1; experiment: absolute IC70 (antiproliferative, propidium iodide); higher = less potent; conditions: exposure time: 4 days
Protocol: (§1)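 Modified propidium iodide survival/proliferation assay in 294 human tumor cell lines (2D monolayer for solid tumors, suspension for hematologic lines) after 4 days of continuous exposure to 10 concentrations in half-log steps from 0.001 to 30 µM. Absolute IC70 was fitted by four-parameter nonlinear regression of T/C × 100 (%) values; 30 µM is the top dose.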

GDC-0623 = compound: O=C(NOCCO)c1ccc2cncn2c1Nc1ccc(I)cc1F [GDC-0623]; experiment: as above; conditions: exposure time: 4 days
Protocol: as §1

## PAXF_1998
[1]
  absolute IC70: 4620 nM
GDC-0623
  absolute IC70: > 30000 nM

## NCI-H1299
[1]
  absolute IC70: 1180 nM
GDC-0623
  absolute IC70: > 30000 nM

## KM-H2
[1]
  absolute IC70: 2770 nM
GDC-0623
  absolute IC70: > 30000 nM

## SNU-16
[1]
  absolute IC70: 15400 nM
GDC-0623
  absolute IC70: > 30000 nM

## LP-1
[1]
  absolute IC70: 2160 nM
GDC-0623
  absolute IC70: > 30000 nM

## JURKAT
[1]
  absolute IC70: 2330 nM
GDC-0623
  absolute IC70: > 30000 nM

## MEXF_622
[1]
  absolute IC70: 227 nM
GDC-0623
  absolute IC70: 40 nM

## VCAP
[1]
  absolute IC70: 5020 nM
GDC-0623
  absolute IC70: > 30000 nM

## MKN7
[1]
  absolute IC70: 17500 nM
GDC-0623
  absolute IC70: > 30000 nM

## SCLC-21H
[1]
  absolute IC70: 31 nM
GDC-0623
  absolute IC70: > 30000 nM

## RXF_393
[1]
  absolute IC70: 869 nM
GDC-0623
  absolute IC70: 15100 nM

## HT-29
[1]
  absolute IC70: 392 nM
GDC-0623
  absolute IC70: 87 nM

## LXFA_629
[1]
  absolute IC70: 750 nM
GDC-0623
  absolute IC70: > 30000 nM

## PAXF_2035
[1]
  absolute IC70: 855 nM
GDC-0623
  absolute IC70: 17200 nM

## NCI-H727
[1]
  absolute IC70: 325 nM
GDC-0623
  absolute IC70: 23 nM

## RXF_2282
[1]
  absolute IC70: 26 nM
GDC-0623
  absolute IC70: > 30000 nM

## SNU-878
[1]
  absolute IC70: 9320 nM
GDC-0623
  absolute IC70: 18800 nM

## PL-21
[1]
  absolute IC70: 338 nM
GDC-0623
  absolute IC70: 365 nM

## DU-4475
[1]
  absolute IC70: 9 nM
GDC-0623
  absolute IC70: 4 nM

## BXF_5637
[1]
  absolute IC70: 20 nM
GDC-0623
  absolute IC70: 359 nM

## SK-MES-1
[1]
  absolute IC70: 617 nM
GDC-0623
  absolute IC70: 235 nM

## SK-UT-1B
[1]
  absolute IC70: 1400 nM
GDC-0623
  absolute IC70: 5790 nM

## NCI-H1184
[1]
  absolute IC70: 815 nM
GDC-0623
  absolute IC70: > 30000 nM

## LXFA_677
[1]
  absolute IC70: 269 nM
GDC-0623
  absolute IC70: 168 nM

## NUGC-4
[1]
  absolute IC70: 329 nM
GDC-0623
  absolute IC70: 8 nM

## KYSE-150
[1]
  absolute IC70: 2820 nM
GDC-0623
  absolute IC70: > 30000 nM

## SNU-423
[1]
  absolute IC70: 1320 nM
GDC-0623
  absolute IC70: > 30000 nM

## MEXF_1737
[1]
  absolute IC70: 48 nM
GDC-0623
  absolute IC70: 11 nM

## MM.1S
[1]
  absolute IC70: 9 nM
GDC-0623
  absolute IC70: > 30000 nM

## LXFL_1121
[1]
  absolute IC70: 743 nM
GDC-0623
  absolute IC70: > 30000 nM

## NALM-33
[1]
  absolute IC70: 7 nM
GDC-0623
  absolute IC70: > 30000 nM

## PA-TU-8988T
[1]
  absolute IC70: 773 nM
GDC-0623
  absolute IC70: > 30000 nM

## NCI-H460
[1]
  absolute IC70: 11 nM
GDC-0623
  absolute IC70: > 30000 nM

## LXFA_983
[1]
  absolute IC70: 202 nM
GDC-0623
  absolute IC70: 18500 nM

## GXF_23132
[1]
  absolute IC70: 20600 nM
GDC-0623
  absolute IC70: > 30000 nM

## HT-1080
[1]
  absolute IC70: 710 nM
GDC-0623
  absolute IC70: 279 nM

## OVCAR-5
[1]
  absolute IC70: 694 nM
GDC-0623
  absolute IC70: 367 nM

## MEXF_2090
[1]
  absolute IC70: 93 nM
GDC-0623
  absolute IC70: 4 nM

## MEXF_520
[1]
  absolute IC70: 99 nM
GDC-0623
  absolute IC70: 5400 nM

## KM12
[1]
  absolute IC70: 386 nM
GDC-0623
  absolute IC70: 15100 nM

## HNXF_1859
[1]
  absolute IC70: 116 nM
GDC-0623
  absolute IC70: 117 nM

## L-363
[1]
  absolute IC70: 692 nM
GDC-0623
  absolute IC70: > 30000 nM

## LXFA_586
[1]
  absolute IC70: 106 nM
GDC-0623
  absolute IC70: > 30000 nM

## MOLT-4
[1]
  absolute IC70: 4 nM
GDC-0623
  absolute IC70: > 30000 nM

## TK10
[1]
  absolute IC70: 873 nM
GDC-0623
  absolute IC70: > 30000 nM

## LXFA_923
[1]
  absolute IC70: 24400 nM
GDC-0623
  absolute IC70: > 30000 nM

## SNU-475
[1]
  absolute IC70: 3550 nM
GDC-0623
  absolute IC70: > 30000 nM

## SR
[1]
  absolute IC70: 13 nM
GDC-0623
  absolute IC70: > 30000 nM

## CAKI-1
[1]
  absolute IC70: 2360 nM
GDC-0623
  absolute IC70: > 30000 nM

## COLO-320
[1]
  absolute IC70: 2110 nM
GDC-0623
  absolute IC70: > 30000 nM

## A498
[1]
  absolute IC70: 4340 nM
GDC-0623
  absolute IC70: > 30000 nM

## PAXF_1657
[1]
  absolute IC70: 564 nM
GDC-0623
  absolute IC70: 260 nM

## EFO-27
[1]
  absolute IC70: 724 nM
GDC-0623
  absolute IC70: > 30000 nM

## MDA-MB-468
[1]
  absolute IC70: 347 nM
GDC-0623
  absolute IC70: 2240 nM

## IM95
[1]
  absolute IC70: 12200 nM
GDC-0623
  absolute IC70: > 30000 nM

## HCC2998
[1]
  absolute IC70: 896 nM
GDC-0623
  absolute IC70: 257 nM

## MEC-1
[1]
  absolute IC70: 34 nM
GDC-0623
  absolute IC70: > 30000 nM

## OVCAR-4
[1]
  absolute IC70: 4280 nM
GDC-0623
  absolute IC70: > 30000 nM

## PXF_1118
[1]
  absolute IC70: 1550 nM
GDC-0623
  absolute IC70: > 30000 nM

## BXF_1036
[1]
  absolute IC70: 115 nM
GDC-0623
  absolute IC70: 8 nM

## MOLT-3
[1]
  absolute IC70: 6 nM
GDC-0623
  absolute IC70: > 30000 nM

## IGROV-1
[1]
  absolute IC70: 1870 nM
GDC-0623
  absolute IC70: > 30000 nM

## COLO-205
[1]
  absolute IC70: 14 nM
GDC-0623
  absolute IC70: 17 nM

## U-266
[1]
  absolute IC70: 1700 nM
GDC-0623
  absolute IC70: > 30000 nM

## SiHa
[1]
  absolute IC70: 4800 nM
GDC-0623
  absolute IC70: > 30000 nM

## LXFA_623
[1]
  absolute IC70: 960 nM
GDC-0623
  absolute IC70: 1010 nM

## SW948
[1]
  absolute IC70: 3000 nM
GDC-0623
  absolute IC70: > 30000 nM

## KYSE-180
[1]
  absolute IC70: 1000 nM
GDC-0623
  absolute IC70: > 30000 nM

## GP5d
[1]
  absolute IC70: 80.2 nM
GDC-0623
  absolute IC70: > 30000 nM

## LIXFC_575
[1]
  absolute IC70: 654 nM
GDC-0623
  absolute IC70: 3010 nM
